Test results: patent US6169181A, “Compounds useful to treat retroviral infections” (Pharmacia & Upjohn Company, priority 1998, dated 2001)
Where “and” joins values, the source holds several entries; their conditions need not be identical. Identical values can stand only once. Like-named read-outs stand apart in the source and are kept apart here.

How the values were obtained:
[1] = target: T1, single chain tethered (tandem) HIV protease (HIV-1 M:B_HXB2R, UniProt P04585); assay: Tandem HIV protease assay; assay type: biochemical; settings: Table II, enzyme HIV1TANDEM; for Ki: read-out: FITC KI
T1 construct: purified enzyme, FITC/biotin substrate assay
Procedure: In the enzyme inhibition assay described above, the sensitivity of Ki value determination is in part limited by the ability to continue to lower the enzyme concentration for compounds with high binding affinity. To prevent de-dimerization at low enzyme concentration, a tandemly linked enzyme is prepared in which the two monomers are covalently linked by an appropriate stretch of amino acid residues. Using the latter enzyme, the sensitivity of the inhibition assay is improved since much lower enzyme concentration can be utilized, as compared to the condition using the wild-type enzyme.
The starting inhibitor concentrations are determined based on preliminary enzyme inhibition screening results which estimate the expected potency of the inhibitor. Inhibitor concentrations are then prepared using the Biomek 1000 (Beckman) and the Quadra 96 (Tomtec). Substrate (biotinylated at the amino terminal arginine and fluorescently labeled with fluorescein at the carboxyl terminal lysine), inhibitor and the tandem enzyme are allowed to react in solution at pH 5.5 (buffers identical to those used with the native dimeric enzyme) in the dark for 96 hours. Streptavidin coated polystyrene beads are added to stop the reaction. The labeled cleavage product is separated from unreacted substrate via filtration. Residual fluorescence is quantitated with the Idexx SM2000 (Idexx) and the resulting data are analyzed using the NLLSF program.

[2] = target: HIV-1 protease (Human immunodeficiency virus type 1 group M subtype B, UniProt P04585); assay: biochemical
How it was run: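 Percent inhibition came from fluorescence of FITC-tagged cleavage product, separated by filtration from uncleaved substrate captured on streptavidin-coated beads. The enzyme (10 μl of 0.1 μM) and compound acted on a biotin/FITC dual-labelled peptide for one hour at room temperature in the dark. The reaction ran in 0.1 M sodium acetate, pH 5.5, with 1.0 M NaCl and 0.05% NP-40.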

[3] = Table II, enzyme HIV-1, DOSE 0.123 (unit not given)
[4] = Table II, enzyme HIV-1, DOSE 0.370 (unit not given)
[5] = Table II, enzyme HIV-1, DOSE 1.100 (unit not given)
[6] = Table II, enzyme HIV-1, DOSE 3.300 (unit not given)
[7] = Table II, enzyme HIV-1, DOSE 10.000 (unit not given)
[8] = Table II, enzyme HIV-1, DOSE 30.000 (unit not given)

Compound	Ki [1] [pM]	PROTEASE % INHIB. [2, 3] [%]	PROTEASE % INHIB. [2, 4] [%]	PROTEASE % INHIB. [2, 5] [%]	PROTEASE % INHIB. [2, 6] [%]	PROTEASE % INHIB. [2, 7] [%]	PROTEASE % INHIB. [2, 8] [%]	PROTEASE % INHIB. [2]	PROTEASE % INHIB. ([1]; DOSE 0.123 (unit not given)) [%]	PROTEASE % INHIB. ([1]; DOSE 0.370 (unit not given)) [%]	PROTEASE % INHIB. ([1]; DOSE 1.100 (unit not given)) [%]	PROTEASE % INHIB. ([1]; DOSE 3.300 (unit not given)) [%]	PROTEASE % INHIB. ([1]; DOSE 10.000 (unit not given)) [%]	PROTEASE % INHIB. ([1]; DOSE 30.000 (unit not given)) [%]
CC(C)CC1(CC(C)C)CC(O)=C(C(c2cccc(NS(=O)(=O)c3cn(C)cn3)c2)C(C)(C)C)C(=O)O1 (racemic) [Example 305, N-[3-(1-[5,6-Dihydro-6,6-diisobutyl-4-hydroxy-2-oxo-2H-pyran-3-yl]-2,2-dimethylpropyl)-phenyl]-1-methyl-1H-imidazole-4-sulfonamide]	400	99.99	110.76	114.35	110.88	102.01	57.83							
CC(C)CC1(CC(C)C)CC(O)=C(C(c2cccc(NS(=O)(=O)c3ccc(C#N)cn3)c2)C(C)(C)C)C(=O)O1 (racemic) [Example 306, 5-Cyano-N-[3-(1-[5,6-dihydro-6,6-diisobutyl-4-hydroxy-2-oxo-2H-pyran-3-yl]-2,2-dimethylpropyl)-phenyl]-2-pyridinesulfonamide]	40	71.79	82.71	89.3	97.29	82.59	53.43							
Cn1cnc(S(=O)(=O)Nc2cccc(C(C3=C(O)CC(CCc4ccccc4)(CCC(F)(F)F)OC3=O)C(C)(C)C)c2)c1 (single isomer, unassigned) [Example 270, N-[3-(R or S)-[1-[5,6-dihydro-4-hydroxy-2-oxo-6-(R or S)-(2-phenethyl)-6-(3,3,3-trifluoropropyl)-2H-pyran-3-yl]-2,2-dimethylpropyl]phenyl]-1-methyl-1H-imidazole-4-sulfonamide]	24	75.26	85.62	93.45	96.62	94.57	82.67							
Cn1cnc(S(=O)(=O)Nc2cccc(C(C3=C(O)CC(CCc4ccccc4)(CCC(F)(F)F)OC3=O)C(C)(C)C)c2)c1 (single isomer, unassigned) [Example 273, N-[3-(R or S)-[1-[5,6-dihydro-4-hydroxy-2-oxo-6-(R or S)-(2-phenethyl)-6-(3,3,3-trifluoropropyl)-2H-pyran-3-yl]-2,2-dimethylpropyl]phenyl]-1-methyl-1H-imidazole-4-sulfonamide]	2300	< 10	23.24	75.38	94.63	95.93	91							
Cn1cnc(S(=O)(=O)Nc2cccc(C(C3=C(O)CC(CCc4ccccc4)(CCC(F)(F)F)OC3=O)C(C)(C)C)c2)c1 (single isomer, unassigned) [Example 276, N-[3-(R or S)-[1-[5,6-dihydro-4-hydroxy-2-oxo-6-(R or S)-(2-phenethyl)-6-(3,3,3-trifluoropropyl)-2H-pyran-3-yl]-2,2-dimethylpropyl]phenyl]-1-methyl-1H-imidazole-4-sulfonamide]	33000	16.49	38.95	66.1	90.01	90.97	87.6							
CCCC1(CCc2ccccc2)CC(O)=C(C(c2cccc(NS(=O)(=O)c3ccccn3)c2)C(C)(C)C)C(=O)O1 (single isomer, unassigned) [Example 278, N-[3-(R or S)-[1-[5,6-dihydro-4-hydroxy-2-oxo-6-(2-phenethyl)-[6-(R or S)-propyl]-2H-pyran-3-yl]-2,2-dimethylpropyl]phenyl]-2-pyridinesulfonamide]	40	76.76	86.99	95.6	96.91	93.32	86.18							
CCCC1(CCC)CC(O)=C(C(c2cccc(NS(=O)(=O)c3ccc(C(F)(F)F)cn3)c2)C(C)(C)C)C(=O)O1 (single isomer, unassigned) [Example 285, 5-Trifluoromethyl-N-[3-(R or S)-[1-[4-hydroxy-2-oxo-6,6-di-n-propyl-5,6-dihydro-2H-pyran-3-yl]-2,2-dimethylpropyl]-phenyl]-2-pyridinesulfonamide]	15	81.8	95.8	99.11	109.33	104.61	86.84							
CCCC1(CCC)CC(O)=C(C(c2cccc(NS(=O)(=O)c3ccc(C(F)(F)F)cn3)c2)C(C)(C)C)C(=O)O1 (single isomer, unassigned) [Example 286, 5-Trifluoromethyl-N-[3-(R or S)-[1-[4-hydroxy-2-oxo-6,6-di-n-propyl-5,6-dihydro-2H-pyran-3-yl]-2,2-dimethylpropyl]-phenyl]1-2-pyridinesulfonamide]	13300	34.76	68.74	89.29	93.11	108.17	95.31							
CCC[C@@]1(CCc2ccccc2)CC(O)=C([C@@H](c2cccc(NS(=O)(=O)c3ccc(C#N)cn3)c2)C(C)(C)C)C(=O)O1 (single isomer, unassigned) [Example 300, 5-Cyano-N-[3(R or S)-(1-[5,6-dihydro-4-hydroxy-2-oxo-6(R or S)-(2-phenylethyl)-6-propyl-2H-pyran-3-yl]-2,2-dimethylpropyl)-phenyl]-2-pyridinesulfonamide]	100							90.61 and 99.05 and 111.45 and 109.19 and 105.56 and 104.91						
CCCC1(CCc2ccccc2)CC(O)=C(C(c2cccc(NS(=O)(=O)c3cn(C)cn3)c2)C(C)(C)C)C(=O)O1 (single isomer, unassigned) [Example 307, N-[3(R or S)-[1-(5,6-Dihydro-4-hydroxy-2-oxo-6(R or S)-[2-phenylethyl]-6-propyl-2H-pyran-3-yl)-2,2-dimethylopropyl]phenyl]-1-methyl-1H-imidazole-4-sulfonamide]	72	77.39	99.85	107.87	93.34	83.49	69.74							
CCC[C@@]1(CCc2ccccc2)CC(O)=C([C@@H](c2cccc(NS(=O)(=O)c3cn(C)cn3)c2)C(C)(C)C)C(=O)O1 (single isomer, unassigned) [Example 308, N-[3(R or S)-[1-(5,6-Dihydro-4-hydroxy-2-oxo-6(R or S)-[2-phenylethyl]-6-propyl-2H-pyran-3-yl)-2,2-dimethylpropyl]phenyl]-1-methyl-1H-imidazole-4-sulfonamide]	74	75.06	108.14	95.01	108.43	110.75	96.28							
CCC[C@@]1(CCc2ccccc2)CC(O)=C([C@@H](c2cccc(NS(=O)(=O)c3cn(C)cn3)c2)C(C)(C)C)C(=O)O1 (single isomer, unassigned) [Example 310, N-[3(R or S)-[1-(5,6-Dihydro-4-hydroxy-2-oxo-6(R or S)-[2-phenylethyl]-6-propyl-2H-pyran-3-yl)-2,2-dimethylpropyl]phenyl]-1-methyl-1H-imidazole-4-sulfonamide]	1500	16.81	50.11	78.69	100.22	124.77	110.91							
CCCC1(CCc2ccccc2)CC(O)=C([C@@H](CC)c2cccc(NS(=O)(=O)c3ccc(C(F)(F)F)cn3)c2)C(=O)O1 (stereo partly drawn) [Example 374, N-[3-[1-(S)-[5,6,-Dihydro-4-hydroxy-2-oxo-6-(2-phenylethyl)-6-propyl-2H-pyran-3-yl]propyl]phenyl]-5-(triflouromethyl)-2-pyridinesulfonamide]	31								78.97	82.14	84.98	87.70	95.25	80.11
